Source: patent US12428406B2 (PMV Pharmaceuticals, Inc., priority 2019, dated 2025)

The molecules below were run against T1, p53 Y220C (Homo sapiens, UniProt P04637, Y220C) (assay: In vitro DNA binding activity assay (HTRF / TR-FRET): stabilization of p53 Y220C and increase of its DNA binding activity). Conditions: recombinant His-tagged p53 Y220C DNA binding domain (aa 94-312), biotin-labeled consensus DNA, incubated at 27° C. or 29° C. for 60 min.
T1 construct: The recombinant protein was a truncation mutant containing only amino acids 94-312 of p53; made in house; host or cells: E. coli
T1 sequence (P04637 94-312, change not shown): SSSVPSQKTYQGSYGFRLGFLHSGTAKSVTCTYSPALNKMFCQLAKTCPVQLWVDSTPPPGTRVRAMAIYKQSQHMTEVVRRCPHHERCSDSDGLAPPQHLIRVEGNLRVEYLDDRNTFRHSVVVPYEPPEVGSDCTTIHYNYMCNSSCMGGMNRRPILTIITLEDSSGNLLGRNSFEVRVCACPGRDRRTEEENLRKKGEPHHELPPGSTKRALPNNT
Type: biochemical
Summary of the method: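 Test compounds, diluted 3-fold in DMSO from 4.5 mM stocks, were incubated with bacterially expressed His-tagged p53 Y220C at room temperature for 15 min, and after a further step for 20 min. DNA binding was detected by time-resolved FRET between APC and europium labels. SC150 marks the concentration increasing binding by 50%.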
`COc1cc(S(C)(=O)=O)ccc1NCC#Cc1cc2c(N[C@H]3CC[C@H](N4CCC5(CCO5)CC4)CC3)cccc2n1CC(F)(F)F` [Compound 383A, 2-{3-[(4-methane-sulfonyl-2-methoxy-phenyl)amino]prop-1-yn-1-yl}-N-[(1R,4R)-4-{1-oxa-7-azaspiro[3.5]nonan-7-yl}cyclohexyl]-1-(2,2,2-trifluoroethyl)-1H-indol-4-amine] was tested, and the “SC150 (concentration of the compound required to increase the DNA binding activity by 50%)” value was “+ (+ = 0 μM ≤ SC150 < 0.05 μM)”.
`COc1cc(C(=O)O)ccc1NCC#Cc1cc2c(N[C@H]3CCN(CCO)C[C@H]3F)cccc2n1CC(F)(F)F` [Compound 912A, 4-{[3-(4-{[(3R,4S)-3-fluoro-1-(2-hydroxyethyl)piperidin-4-yl]amino}-1-(2,2,2-trifluoroethyl)-1H-indol-2-yl)prop-2-yn-1-yl]amino}-3-methoxybenzoic acid] was tested, and the “SC150 (concentration of the compound required to increase the DNA binding activity by 50%)” value was “+ (+ = 0 μM ≤ SC150 < 0.05 μM)”.
For `COc1cc(S(C)(=O)=O)ccc1NCC#Cc1cc2c(N[C@@H]3C[C@@H](C)O[C@@H](C)C3)cccc2n1CC(F)(F)F` [Compound 1028A, 2-{3-[(4-methanesulfonyl-2-methoxyphenyl)amino]prop-1-yn-1-yl}-N-[(2R,4S,6S)-2,6-dimethyloxan-4-yl]-1-(2,2,2-trifluoroethyl)-1H-indol-4-amine], the “SC150 (concentration of the compound required to increase the DNA binding activity by 50%)” value was “+++ (+++ = 0.1 μM ≤ SC150 < 0.2 μM)”.
For `COc1cc(S(=O)(=O)NC2CCOCC2)ccc1NCC#Cc1cc2c(NC3CCOCC3)cccc2n1CC(F)(F)F` [Compound 993A, 3-methoxy-N-(oxan-4-yl)-4-[(3-{4-[(oxan-4-yl)amino]-1-(2,2,2-trifluoroethyl)-1H-indol-2-yl}prop-2-yn-1-yl)amino]benzene-1-sulfonamide], the “SC150 (concentration of the compound required to increase the DNA binding activity by 50%)” value was “+ (+ = 0 μM ≤ SC150 < 0.05 μM)”.
With `COCCN(C)[C@H]1CC[C@H](Nc2cccc3c2cc(C#CCNc2ccc(S(C)(=O)=O)cc2OCC#N)n3CC(F)(F)F)CC1` [Compound 149A] the “SC150 (concentration of the compound required to increase the DNA binding activity by 50%)” value was “+ (+ = 0 μM ≤ SC150 < 0.05 μM)”.
`CS(=O)(=O)c1ccc(NCC#Cc2cc3c(NC4CCC(N5CCOCC5)CC4)cccc3n2CC(F)(F)F)c(OCF)c1` [Compound 340A, 2-(3-{[2-(fluoro-methoxy)-4-methane-sulfonylphenyl]amino}prop-1-yn-1-yl)-N-[(1R,4R)-4-(morpholin-4-yl)cyclohexyl]-1-(2,2,2-trifluoroethyl)-1H-indol-4-amine] was tested, and the “SC150 (concentration of the compound required to increase the DNA binding activity by 50%)” value was “+ (+ = 0 μM ≤ SC150 < 0.05 μM)”.
In the case of `CN1CC[C@@H](Nc2cccc3c2cc(C#CCNC(=O)c2ccn(C(C)(C)C)c2)n3CC(F)(F)F)[C@@H](F)C1` [Compound 955A, 1-tert-butyl-N-[3-(4-{[(3S,4R)-3-fluoro-1-methylpiperidin-4-yl]amino}-1-(2,2,2-trifluoroethyl)-1H-indol-2-yl)prop-2-yn-1-yl]-1H-pyrrole-3-carboxamide], the “SC150 (concentration of the compound required to increase the DNA binding activity by 50%)” value is reported as “+ (+ = 0 μM ≤ SC150 < 0.05 μM)”.
With `COCC(O)CN1CCC(Nc2cccc3c2cc(C#CCNc2ccc(C(=O)O)cc2OC)n3CC(F)(F)F)CC1` (stereo not shown) [Compound 705A, 4-{[3-(4-{[1-(2-hydroxy-3-methoxypropyl)piperidin-4-yl]amino}-1-(2,2,2-trifluoroethyl)-1H-indol-2-yl)prop-2-yn-1-yl]amino}-3-methoxybenzoic acid] the “SC150 (concentration of the compound required to increase the DNA binding activity by 50%)” value was “+ (+ = 0 μM ≤ SC150 < 0.05 μM)”.
With `COC[C@H](O)CN1CCC(Nc2cccc3c2cc(C#CCNc2ccc(S(C)(=O)=O)cc2OCF)n3CC(F)(F)F)CC1` [Compound 667A, (2R)-1-(4-{[2-(3-{[2-(fluoromethoxy)-4-methanesulfonylphenyl]amino}prop-1-yn-1-yl)-1-(2,2,2-trifluoroethyl)-1H-indol-4-yl]amino}piperidin-1-yl)-3-methoxypropan-2-ol] the “SC150 (concentration of the compound required to increase the DNA binding activity by 50%)” value was “+ (+ = 0 μM ≤ SC150 < 0.05 μM)”.
`CNC(=O)c1ccc(NCC#Cc2cc3c(N[C@H]4CC[C@@H](N(C)CCOC)CC4)cccc3n2CC(F)(F)F)c(OC)c1` [Compound 152A, 3-methoxy-N-methyl-4-{[3-(4-{[(1S,4S)-4-[(2-methoxyethyl) (methyl)amino]cyclohexyl]amino}-1-(2,2,2-trifluoroethyl)-1H-indol-2-yl)prop-2-yn-1-yl]amino}benzamide] was tested, and the “SC150 (concentration of the compound required to increase the DNA binding activity by 50%)” value was “+ (+ = 0 μM ≤ SC150 < 0.05 μM)”.
In the case of `CCC(=O)NS(=O)(=O)c1ccc(NCC#Cc2cc3c(N[C@H]4CC[C@H](N(C)C)CC4)cccc3n2CC(F)(F)F)c(OC)c1` [Compound 85A, N-(3-methoxy-4-{[3-(4-{[(1R,4R)-4-(dimethylamino)cyclohexyl]amino}-1-(2,2,2-trifluoroethyl)-1H-indol-2-yl)prop-2-yn-1-yl]amino}benzenesulfonyl)propanamide], the “SC150 (concentration of the compound required to increase the DNA binding activity by 50%)” value is reported as “+ (+ = 0 μM ≤ SC150 < 0.05 μM)”.
With `CNC(=O)c1ccc(NCC#Cc2cc3c(N[C@H]4CC[C@H](N5CCOCC5)CC4)cccc3n2CC#N)c(OC)c1` [Compound 177A, 4-({3-[1-(cyanomethyl)-4-{[(1R,4R)-4-(morpholin-4-yl)cyclohexyl]amino}-1H-indol-2-yl]prop-2-yn-1-yl}amino)-3-methoxy-N-methyl-benzamide] the “SC150 (concentration of the compound required to increase the DNA binding activity by 50%)” value was “+ (+ = 0 μM ≤ SC150 < 0.05 μM)”.
With `COc1cc(S(N)(=O)=O)ccc1NCC#Cc1cc2c(N[C@H]3CC[C@H](N4CC5(CCCOC5)C4)CC3)cccc2n1CC(F)(F)F` [Compound 320A, 3-methoxy-4-{[3-(4-{[(1R,4R)-4-{6-oxa-2-azaspiro[3.5]nonan-2-yl}cyclohexyl]amino}-1-(2,2,2-trifluoro-ethyl)-1H-indol-2-yl)prop-2-yn-1-yl]amino} benzene-1-sulfonamide] the “SC150 (concentration of the compound required to increase the DNA binding activity by 50%)” value was “+ (+ = 0 μM ≤ SC150 < 0.05 μM)”.
With `CCn1ccc(C(=O)NCC#Cc2cc3c(N[C@@H]4CCN(C)C[C@@H]4F)cccc3n2CC(F)(F)F)c1` [Compound 954A, 1-ethyl-N-[3-(4-{[(3S,4R)-3-fluoro-1-methylpiperidin-4-yl]amino}-1-(2,2,2-trifluoroethyl)-1H-indol-2-yl)prop-2-yn-1-yl]-1H-pyrrole-3-carboxamide] the “SC150 (concentration of the compound required to increase the DNA binding activity by 50%)” value was “+ (+ = 0 μM ≤ SC150 < 0.05 μM)”.
`COC[C@@H](O)CN1CCC(Nc2cccc3c2cc(C#CCNc2ccc(S(C)(=O)=O)cc2OC)n3CC(F)(F)F)CC1` [Compound 612A, (2S)-1-{4-[(2-{3-[(4-methanesulfonyl-2-methoxyphenyl)amino]prop-1-yn-1-yl}-1-(2,2,2-trifluoroethyl)-1H-indol-4-yl)amino]piperidin-1-yl}-3-methoxypropan-2-ol] was tested, and the “SC150 (concentration of the compound required to increase the DNA binding activity by 50%)” value was “+ (+ = 0 μM ≤ SC150 < 0.05 μM)”.
`COc1cc(S(=O)(=O)N(C)CCN(C)C)ccc1NCC#Cc1cc2c(NC3CCS(=O)(=O)CC3)cccc2n1CC(F)(F)F` [Compound 1043A, N-[2-(dimethylamino)ethyl]-4-[(3-{4-[(1,1-dioxo-1λ^6-thian-4-yl)amino]-1-(2,2,2-trifluoroethyl)-1H-indol-2-yl}prop-2-yn-1-yl)amino]-3-methoxy-N-methylbenzene-1-sulfonamide] was tested, and the “SC150 (concentration of the compound required to increase the DNA binding activity by 50%)” value was “+ (+ = 0 μM ≤ SC150 < 0.05 μM)”.
